ChEMBL document CHEMBL5550215, “Discovery of Novel Imidazo[1,2-a]pyridine-Based HDAC6 Inhibitors as an Anticarcinogen with a Cardioprotective Effect” (J Med Chem, 2024)
The source made the active and inactive calls. The calls are words filed in the database; no cut-off is given here.

Key:
TE-1 = test: Antiproliferative activity against human TE-1 cells assessed as inhibition of cell growth by MTT assay
MGC-803 [1] = test: Antitumor activity against human MGC-803 cells xenografted in […] mouse model assessed as suppression of tumor volume at 25 to 50 mg/kg, ip measured upto 21 days with continuous administration for 5 days followed by two days break; format: functional, organism-based; settings: dose 25-50 mg/kg, time <= 21.0 day
SMMC-7721 = test: Antiproliferative activity against human SMMC-7721 cells assessed as inhibition of cell growth by MTT assay
MGC-803 [2] = test: Induction of apoptosis in human MGC-803 cells assessed as necrotic cells at 0.5 uM measured after 48 hrs by Annexin V-EGFP and PI staining based flow cytometry analysis (reference value: 3.90%); format: functional

For `O=C(NO)c1ccc(CNC(=O)c2cc(-c3ccc(F)cc3)cn3ccnc23)cc1`, the IC50 (TE-1) was 4.5 µM, the Activity (MGC-803 [1]) was “Active” and the IC50 (SMMC-7721) was 2740 nM. It also gave an Activity (MGC-803 [2]) of 5.97%.
